Laboratory results as given in patent publication US20220089638A1, “DITHIOCARBAMATE STAPLED PEPTIDES AND METHODS OF MAKING AND USE THEREOF” (UNIVERSITY OF MARYLAND, BALTIMORE, priority 2019, published 2022).
Where a SMILES comes first, the peptide text is derived from it. Bridges are numbered along the chain shown (N, C = ends). Where no end group is shown, it is not given here.

T1: cathepsin G (Homo sapiens, UniProt P08311)
T1 sequence (P08311 21-244): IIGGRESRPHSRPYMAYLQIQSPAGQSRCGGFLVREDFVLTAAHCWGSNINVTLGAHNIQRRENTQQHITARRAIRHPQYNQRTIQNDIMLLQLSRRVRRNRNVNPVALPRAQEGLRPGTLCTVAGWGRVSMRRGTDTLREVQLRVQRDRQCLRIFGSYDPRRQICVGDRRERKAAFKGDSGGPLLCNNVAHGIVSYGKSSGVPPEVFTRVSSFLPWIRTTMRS

T2: synthetic 24-108MDMX (p53-binding domain of MDMX) (UniProt O15151 24-108)
T2 sequence (looked up): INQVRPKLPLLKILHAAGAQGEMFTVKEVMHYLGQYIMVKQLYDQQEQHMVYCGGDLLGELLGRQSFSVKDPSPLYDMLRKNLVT


How the values were obtained:
[1] = Circular dichroism spectroscopy, percent α-helix; assay type: physicochemical; conditions: CD spectroscopy
Excerpt: Circular Dichroism (CD) Spectroscopy.

[2] = 25° C., PBS buffer, glutathione 10 mM, over 24 h
[3] = target: T1, cathepsin G; experiment: Proteolytic stability in the presence of cathepsin G; assay type: in vitro ADME; conditions: cathepsin G (25 μg/ml) in RPMI 1640; 100 μM peptide, 25 μg/mL cathepsin G, cell culture medium, room temperature
[4] = test system: HCT116 p53^−/−; experiment: Cell viability assay (CCK8), HCT116 p53-/-; assay type: cell-based, human; conditions: concentrations of up to 50 μM
[5] = test system: HCT116 p53^+/+; experiment: Cell viability assay (CCK8), HCT116 p53+/+; assay type: cell-based, human; conditions: concentrations of up to 50 μM
[6] = test system: HCT116 p53^+/+ cells; experiment: Cellular uptake by confocal microscopy; assay type: cell-based, human; conditions: FITC-labeled peptide, 20 μM, 4 h
Procedure: Cellular uptake of ^DTCPMI. […] Cells were then incubated with 20 μM FITC-^DTCPMI Ctrl. or FITC-^DTCPMI for 4 h. Cells were washed with Dulbecco's phosphate buffered saline, fixed with 4% (wt/vol) paraformaldehyde, finally incubated by DAPI to stain the cell nucleus. Imaged using an LSM 510 Zeiss Axiovert 200M (v4.0) confocal microscope. Images were analyzed using an LSM image browser.

[7] = target: T3, synthetic 25-109MDM2 (p53-binding domain of MDM2) (UniProt Q00987 25-109); experiment: SPR competition in solution: MDM2 at 25 nM incubated with the peptide, free MDM2 read on a chip with immobilised 15-29p53
T3 construct: range 25-109

[8] = target: T3, synthetic 25-109MDM2 (p53-binding …); experiment: FP competition: the peptide displaces TAMRA-PMI (10 nM) from MDM2 (50 nM)
[9] = target: T3, synthetic 25-109MDM2 (p53-binding …); experiment: SPR competition in solution: MDM2 at 25 nM incubated with the peptide, free MDM2 read on a chip with immobilised 15-29p53; remark: listed apart in the source
[10] = target: T2, synthetic 24-108MDMX (p53-binding …); experiment: SPR competition in solution: MDMX at 100 nM incubated with the peptide, free MDMX read on a chip with immobilised 15-29p53
[11] = target: T3, synthetic 25-109MDM2 (p53-binding …); experiment: FP competition: the peptide displaces TAMRA-PMI (10 nM) from MDM2 (50 nM) [left panel]
[12] = target: T2, synthetic 24-108MDMX (p53-binding …); experiment: FP competition: the peptide displaces TAMRA-PMI (10 nM) from MDMX (50 nM) [right panel]
[13] = target: T2, synthetic 24-108MDMX (p53-binding …); experiment: FP competition: the peptide displaces TAMRA-PMI (10 nM) from MDMX (50 nM)
[14] = target: T2, synthetic 24-108MDMX (p53-binding …); experiment: SPR competition in solution: MDMX at 100 nM incubated with the peptide, free MDMX read on a chip with immobilised 15-29p53; remark: listed apart in the source
[15] = target: T3, synthetic 25-109MDM2 (p53-binding …); experiment: FP competition: the peptide displaces TAMRA-PMI (10 nM) from MDM2 (50 nM); remark: listed apart in the source

Row | Molecule | α-helix (%) ([1]; Table 3) | α-helix (%) ([1]; Table 7) | also measured
1 | CC(=O)N[C@H]1CCCCNC(=S)SC[C@@H](C(=O)N[C@@H](Cc2ccc(O)cc2)C(=O)N[C@@H](Cc2c[nH]c3ccccc23)C(=O)N[C@@H](CC(N)=O)C(=O)N[C@@H](CC(C)C)C(=O)N[C@@H](CC(C)C)C(=O)N[C@@H](CO)C(=O)N2CCC[C@H]2C(N)=O)NC(=O)[C@H](C)NC(=O)[C@H](Cc2ccccc2)NC(=O)[C@H](CO)NC1=O [PMI(1,5)-a] | 36 | 6.50 | –
2 | CC(=O)N[C@H]1CSC(=S)NCCCC[C@@H](C(=O)N[C@@H](Cc2ccc(O)cc2)C(=O)N[C@@H](Cc2c[nH]c3ccccc23)C(=O)N[C@@H](CC(N)=O)C(=O)N[C@@H](CC(C)C)C(=O)N[C@@H](CC(C)C)C(=O)N[C@@H](CO)C(=O)N2CCC[C@H]2C(N)=O)NC(=O)[C@H](C)NC(=O)[C@H](Cc2ccccc2)NC(=O)[C@H](CO)NC1=O [PMI(1,5)-b] | 7.6 | 8.38 | –
3 | CC(=O)N[C@H](C(=O)N[C@H]1CCCCNC(=S)SC[C@@H](C(=O)N[C@@H](Cc2c[nH]c3ccccc23)C(=O)N[C@@H](CC(N)=O)C(=O)N[C@@H](CC(C)C)C(=O)N[C@@H](CC(C)C)C(=O)N[C@@H](CO)C(=O)N2CCC[C@H]2C(N)=O)NC(=O)[C@H](CCC(=O)O)NC(=O)[C@H](C)NC(=O)[C@H](Cc2ccccc2)NC1=O)[C@@H](C)O [PMI(2,6)-a] | 5.9 | 15.3 | –
4 | CC(=O)N[C@H](C(=O)N[C@H]1CSC(=S)NCCCC[C@@H](C(=O)N[C@@H](Cc2c[nH]c3ccccc23)C(=O)N[C@@H](CC(N)=O)C(=O)N[C@@H](CC(C)C)C(=O)N[C@@H](CC(C)C)C(=O)N[C@@H](CO)C(=O)N2CCC[C@H]2C(N)=O)NC(=O)[C@H](CCC(=O)O)NC(=O)[C@H](C)NC(=O)[C@H](Cc2ccccc2)NC1=O)[C@@H](C)O [PMI(2,6)-b] | 3.1 | 4.81 | –
5 | CC(=O)N[C@H](C(=O)N[C@@H](CO)C(=O)N[C@@H](Cc1ccccc1)C(=O)N[C@H]1CCCCNC(=S)SC[C@@H](C(=O)N[C@@H](CC(C)C)C(=O)N[C@@H](CC(C)C)C(=O)N[C@@H](CO)C(=O)N2CCC[C@H]2C(N)=O)NC(=O)[C@H](Cc2c[nH]c3ccccc23)NC(=O)[C@H](Cc2ccc(O)cc2)NC(=O)[C@H](CCC(=O)O)NC1=O)[C@@H](C)O [PMI(4,8)-a] | 25 | 39.3 | –
6 | CC(=O)N[C@H](C(=O)N[C@@H](CO)C(=O)N[C@@H](Cc1ccccc1)C(=O)N[C@H]1CSC(=S)NCCCC[C@@H](C(=O)N[C@@H](CC(C)C)C(=O)N[C@@H](CC(C)C)C(=O)N[C@@H](CO)C(=O)N2CCC[C@H]2C(N)=O)NC(=O)[C@H](Cc2c[nH]c3ccccc23)NC(=O)[C@H](Cc2ccc(O)cc2)NC(=O)[C@H](CCC(=O)O)NC1=O)[C@@H](C)O [PMI(4,8)-b] | 5.6 | 9.15 | –
7 | CC(=O)N[C@H](C(=O)N[C@@H](CO)C(=O)N[C@@H](Cc1ccccc1)C(=O)N[C@@H](C)C(=O)N[C@H]1CCCCNC(=S)SC[C@@H](C(=O)N[C@@H](CC(C)C)C(=O)N[C@@H](CO)C(=O)N2CCC[C@H]2C(N)=O)NC(=O)[C@H](CC(N)=O)NC(=O)[C@H](Cc2c[nH]c3ccccc23)NC(=O)[C@H](Cc2ccc(O)cc2)NC1=O)[C@@H](C)O [PMI(5,9)-a] | 0 | 6.88 | –
8 | CC(=O)N[C@H](C(=O)N[C@@H](CO)C(=O)N[C@@H](Cc1ccccc1)C(=O)N[C@@H](C)C(=O)N[C@H]1CSC(=S)NCCCC[C@@H](C(=O)N[C@@H](CC(C)C)C(=O)N[C@@H](CO)C(=O)N2CCC[C@H]2C(N)=O)NC(=O)[C@H](CC(N)=O)NC(=O)[C@H](Cc2c[nH]c3ccccc23)NC(=O)[C@H](Cc2ccc(O)cc2)NC1=O)[C@@H](C)O [PMI(5,9)-b] | 0 | 9.58 | –
9 | CC(=O)N[C@H](C(=O)N[C@@H](CO)C(=O)N[C@@H](Cc1ccccc1)C(=O)N[C@@H](C)C(=O)N[C@@H](CCC(=O)O)C(=O)N[C@@H](Cc1ccc(O)cc1)C(=O)N[C@@H](Cc1c[nH]c2ccccc12)C(=O)N[C@H]1CCCCNC(=S)SC[C@@H](C(N)=O)NC(=O)[C@H](CO)NC(=O)[C@H](CC(C)C)NC(=O)[C@H](CC(C)C)NC1=O)[C@@H](C)O [PMI(8,12)-a] | 33 | 43.3 | breakdown of the DTC structure in reduced glutathione [2]: no apparent breakdown of the DTC structure was observed over 24 h; half-life at 100 μM [3]: ~8 h
10 | CC(=O)N[C@H](C(=O)N[C@@H](CO)C(=O)N[C@@H](Cc1ccccc1)C(=O)N[C@@H](C)C(=O)N[C@@H](CCC(=O)O)C(=O)N[C@@H](Cc1ccc(O)cc1)C(=O)N[C@@H](Cc1c[nH]c2ccccc12)C(=O)N[C@H]1CSC(=S)NCCCC[C@@H](C(N)=O)NC(=O)[C@H](CO)NC(=O)[C@H](CC(C)C)NC(=O)[C@H](CC(C)C)NC1=O)[C@@H](C)O [PMI(8,12)-b] | 0 | 0.23 | –
11 | CC(=O)N[C@H](C(=O)N[C@@H](CO)C(=O)N[C@@H](Cc1ccccc1)C(=O)N[C@@H](C)C(=O)N[C@@H](CCC(=O)O)C(=O)N[C@@H](Cc1ccc(O)cc1)C(=O)N[C@@H](Cc1c[nH]c2ccccc12)C(=O)N[C@@H](CC(N)=O)C(=O)N[C@@H](CC(C)C)C(=O)N[C@@H](CC(C)C)C(=O)N[C@@H](CO)C(=O)N1CCC[C@H]1C(N)=O)[C@@H](C)O [PMI-0, reference compound] (Ac-TSFAEYWNLLSP-NH2) | 0 | 9.77 | –
12 | CC(=O)N[C@H](C(=O)N[C@@H](CO)C(=O)N[C@@H](Cc1ccccc1)C(=O)N[C@@H](CCCCN)C(=O)N[C@@H](CCC(N)=O)C(=O)N[C@@H](Cc1ccc(O)cc1)C(=O)N[C@@H](Cc1c[nH]c2ccccc12)C(=O)N[C@@H](CS)C(=O)N[C@@H](CC(C)C)C(=O)N[C@@H](CC(C)C)C(=O)N[C@@H](CO)C(=O)N[C@@H](CCCNC(=N)N)C(N)=O)[C@@H](C)O [^DTCPMI Ctrl., reference compound] | – | 16.6 | anti-proliferative activity against HCT116 p53-/- [4]: no anti-proliferative activity; anti-proliferative activity against HCT116 p53+/+ [5]: no anti-proliferative activity; intracellular localization / cellular uptake (confocal microscopy) [6]: diffused intracellular localization, demonstrating efficient cellular uptake
13 | Ac-TSFAEYWKLLSC-NH2 (bridge 8-12) [PMI(8,12)-a] | – | – | IC50 (read off the curve) [7]: ~10 nM; IC50 (read off the curve) [8]: ~30 nM; IC50 (read off the curve) [9]: ~10 nM; IC50 (read off the curve) [10]: 50 to 60 nM; IC50 (read off the curve) [11]: ~30 nM
14 | Ac-TSFKEYWCLLSP-NH2 (bridge 4-8, Co-crystal with MDMX is PDB 5VK1; also called PMI(4, 8)-1) [PMI(4,8)-a] | – | – | IC50 (read off the curve) [7]: ~10 nM; IC50 (read off the curve) [12]: ~30 nM; IC50 (read off the curve) [13]: ~30 nM; IC50 (read off the curve) [8]: ~40 nM; IC50 (read off the curve) [9]: ~10 nM; IC50 (read off the curve) [10]: ~50 nM; IC50 (read off the curve) [11]: ~40 nM
15 | QETFCDLWKLLP (peptide, UniProt P04637 16-27, looked up, bridge 5-9, range 16-27; also called stapled p53 peptide) [^DTCp53 (DTC-stapled 16-27p53, Ser20Cys, staple Cys20-Lys24)] | – | – | IC50 (read off the curve) [14]: ~100 nM; IC50 (read off the curve) [15]: ~300 nM
